Results from patent US9468209B2, “Method for eradicating weeds with derivatives of 3-acetyl-5-sec-butyl-4-hydroxy-3-pyrrolin-2-one” (priority 2012, dated 2016).

Legend:
photosystem II = test: PSII oxygen evolution / electron transfer activity of treated Crofton weed leaves; type: biochemical; conditions: 50 μg/mL, strong light 12 hours
Procedure, shortened: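 Cleaned Crofton weed leaves had 50 μg/mL compound (methanol diluted in water) applied to the underside, with matching methanol–water control. Vacuum 15 min at 25° C, then 12 h strong light (400 μM m^−2 s^−1) before measuring Hill reaction, electron transfer and chlorophyll fluorescence; four leaves per treatment, tested three times.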

Crofton weed [1] = test: Spray on leaves and stems of three-leaf-stage Crofton weed seedlings grown in pots in a greenhouse; type: in vivo; set-up: key: 4: Plant completely dead; 3: Two thirds of the plant stems and leaves dried out; 2: Half of the plant stems and leaves dried out; 1: One third of the plant stems and leaves dried out; 0: No damage at all; conditions: 50 μg/mL spray, assessed two days later
Experimental: Compounds 1, 2, 3, and 40 were separately dissolved in a small amount of methanol. The solutions were then diluted with distilled water to a concentration of 50 μg/mL. A mixture of methanol and water in the same ratio as the sample solution was also prepared and used as control in the experiment. The solutions were sprayed on leaves and stems of three-leaf-stage Crofton weed seedlings. All the plants were grown in pot in a greenhouse. The leaves were properly wet by the solutions for consistency and the treatment was repeated 3 times. The measurement of the plant damage was calculated by the formula: Damage Index=Σ(damage level×number of plants)×100/4/number of plants in each treatment.

Crofton weed [2] = test: Needle puncture test on Crofton weed with washes recovered from compound-treated soil; type: in vivo; conditions: after soil treatment (3 hours)
Experimental: Compounds 1, 2, 3, and 40 were dissolved in small amount of methanol and diluted with distilled water to concentration of 50 μg/mL. The solution was sprayed to the soil sample until the soil was wet but not overflows. After standing at room temperature for 3 hours, the soil sample was washed with water and methanol. The wash solution was collected and concentrated. Such process was repeated three times. The concentrated solutions were used for herbicidal activity test using the method of needle puncture on Crofton weed. Methanol water solution and pure water were used as control. The experiment for every sample was repeated six times. The spot diameters were measured with vernier caliper after the plant was kept under natural light at 25° C. for 24 hours (Table 11).

SMILES: CCCC(Cl)C1NC(=O)C(C(C)=O)=C1O (stereo not drawn) [Compound 40]
- PSII Activity of oxygen evolution (photosystem II): 24.00 uMO2/mgChlh
- Damage level (Crofton weed [1]): 4
- Average diameter of the spot after 24 h, H2O wash (Crofton weed [2]; H2O wash): 0.336 ± 0.050 mm
- Average diameter of the spot after 24 h, Methanol wash (Crofton weed [2]; Methanol wash): 0.416 ± 0.024 mm

SMILES: CCCC(C#N)C1NC(=O)C(=C(C)O)C1=O (stereo not drawn) [Compound 53]
- PSII Activity of oxygen evolution (photosystem II): 32.12 uMO2/mgChlh

SMILES: CCCCC1NC(=O)C(C(C)=O)=C1O (stereo not drawn) [Compound 14]
- PSII Activity of oxygen evolution (photosystem II): 34.01 uMO2/mgChlh

SMILES: CCC(C)C1NC(=O)C(C(=O)CCF)=C1O (stereo not drawn) [Compound 44]
- PSII Activity of oxygen evolution (photosystem II): 40.75 uMO2/mgChlh

SMILES: CCCCCC1NC(=O)C(C(C)=O)=C1O (stereo not drawn) [Compound 15]
- PSII Activity of oxygen evolution (photosystem II): 31.26 uMO2/mgChlh

SMILES: CCCCCCC1NC(=O)C(C(C)=O)=C1O (stereo not drawn) [Compound 16]
- PSII Activity of oxygen evolution (photosystem II): 30.00 uMO2/mgChlh
